Consider 2 compounds from patent US20250302802A1, “METHODS AND COMPOSITIONS” (VRG 145 ZRT., priority 2024, published 2025).

Data set [1] relates to face allodynia in the infraorbital nerve ligation model. The experiment in a line: Partial infraorbital nerve ligation model, reversal of face allodynia (head withdrawal threshold, von Frey). The data set is classed as in vivo. To be noted: Rattus norvegicus, po; per os; mean (S.E.M.); individual maximum post-dose reversals; combination in terms of doses of the individual components; read-out: ED50 (effective dose causing 50% reversal of the allodynia). As to the method:
Infraorbital nerve ligation models, either by partial ligation or by the loose ligation of the whole nerve (chronic constriction injury) have been used as models of trigeminal neuralgia or trigeminal neuropathic pain. […] Male Sprague-Dawley rats weighing 200-220 g at surgery and 290-390 g at the time of testing were used. As primary read-outs of tactile pain sensitivity of the face, head withdrawal thresholds were measured by repeated stimulations using von Frey filaments (Touch Test Sensory Probes, Stoelting®). Before surgery, the rats were habituated to the testing for two weeks, first by handling (for 2 days) and then by repeated touching with von Frey filaments and finally determination of 50% head withdrawal thresholds (HWT) on three consecutive days. Rats with HWT<10 g at 2 out of 3 pre-surgery tests were not enrolled in the study. Sensitivity of the orofacial region was tested using calibrated von Frey filaments, with a series of filaments with bending force ranging between 0.4-14.8 g. […] HWTs were determined using Chaplan's up-down method, starting with the filament of 2 g bending force. […] The evaluated post-dose data (HWTs in gram) were converted to percent reversals, taking the simultaneous post-dose average HWT value of the vehicle treated group as 0% and the pre-surgery average value of animals involved in the test substance-treated group as 100%.

Data set [2] has as its system periorbital allodynia in the dural inflammation model. In words: Dural inflammation (inflammatory soup) model, reversal of periorbital allodynia (periorbital threshold, von Frey). Type of data set: in vivo, rat. To be noted: 90 min post-dose; for reversal of allodynia at the medium dose level: solo 0.6 mg/kg per os.
Excerpt: Male Sprague-Dawley rats weighing approximately 250 g at surgery were used. Rats were habituated and trained for 1-2 weeks and then fitted with a stainless-steel cannula (22GA, Plastics One) under isoflurane anesthesia. […] Special attention was given not to disturb the dura. A custom flange guide cannula (22GA, Plastics One) was inserted into the hole (cut 0.5 mm below pedestal). The cannula was fixed to the bone with small screws and dental cement. A dummy that extended just past the end of the guide cannula was inserted to prevent scar tissue from forming, and thus clogging the cannula. Animals were allowed 1-2 weeks of recovery before testing and infusions began. Periorbital thresholds (POT) were monitored 7-10 days after surgery to ensure the thresholds generally returned to pre-surgery baselines.
While under isoflurane anesthesia, the infusion procedure proceeded over 5 consecutive days in which a Hamilton syringe attached to an infusion pump was used to deliver 15 μL of inflammatory soup over 8 minutes, at a rate of 1.759 μL/min. The Hamilton syringe was connected to tubing with a custom cannula injector at the tip; the syringe, tubing line, and injector were filled to the tip with inflammatory soup solution. The custom cannula injector was inserted into the flange cannula and the infusion started. The inflammatory soup contained 2 mM histamine, 2 mM bradykinin, 2 mM serotonin, and 0.2 mM prostaglandin E2 dissolved in saline.
Only animals that developed sustained hypersensitivity and satisfied the periorbital sensitivity criteria (POT<2.5 g) were enrolled into the study and each week into test groups.
Sensory testing was performed on testing days using von Frey filaments (Stoelting®, Wood Dale, Illinois) with reproducible calibrated buckling forces varying from 0.4-10 g utilizing Chaplan's up-down method. The specific fibers utilized were 3.61 (0.4 g), 3.84 (0.6 g), 4.08 (1 g), 4.31 (2 g), 4.56 (4 g), 4.74 (6 g), 4.93 (8 g), and 5.07 (10 g); 4.31 (2 g) was the starting fiber. Allodynia was tested by gently restraining the rat in the investigator's hand by holding the rat in one hand with fingers just behind the left forepaw, keeping the animal pressed against the investigator's chest. Fibers were applied by perpendicularly touching the rostral portion of the periorbital region (below the lower eye margin close to the rostral corner) causing slight buckling of the filament for approximately 5 seconds. Based on the response pattern and the force of the final filament, the withdrawal threshold (g) was calculated.
On testing days, a blinded investigator tested periorbital sensitivity pre-dose, 45 min, 90 min, and 135 min after drug administration. […]
A short description of data set [3]: Pharmacokinetic interaction study of lisinopril and memantine. The data set is classed as in vivo. To be noted: rat, serum. The protocol:
The statistical significance of differences between corresponding solo treatment and combination treatment mean values was evaluated by Student's unpaired t-test. The areas under the curve between TO (time of dosing) and last tested timepoint (135 min) were also calculated to assess the drug exposures in each animal (Table 2).

The test system of a further data set is cardiovascular system. In words: Cardiovascular telemetry in awake unrestrained normotensive rats. The data set is classed as in vivo, rat. Particulars: for Heart rate; difference from Vehicle treated, Mean / Mean arterial blood pressure; difference from Vehicle treated, Mean: oral gavage, post-dose period of 3-6 hours. As to the method:
The cardiovascular parameters of normotensive rats instrumented with telemetric devices were investigated to determine whether the observed in vivo pharmacodynamic synergy exists also for cardinal side effects of the drug components of the combination. As lisinopril is an antihypertensive drug, its vasodilator and antihypertensive effects or other related cardiovascular effects may be cardinal side effects. Therefore, a cardiovascular telemetry study was performed with lisinopril, memantine and their combination in rats. Male Sprague-Dawley rats weighing 250-300 g at the start of the investigations were used. The animals were housed individually in artificially lightened chambers with a 12 h light and dark cycle (lights on at 07:00) and an ambient temperature of 20-22° C. Radiotelemetric units comprising transmitters with built in sensors (Data Sciences International, USA, Type: HD-S11) were surgically implanted into rats under sodium pentobarbital (50 mg/kg, i.p.) induced anesthesia. The rat abdomen was opened by a midline laparotomy. After visualizing the aorta, it was separated from the vena cava just caudal to the left dorsal muscular branch. A piece of 5-0 suture was placed between the vena cava and aorta so that the suture lied underneath the aorta. By this suture the aorta was temporarily occluded, and the catheter introduced into the vessel. After drying the aorta around the catheter entry site, a small amount of tissue adhesive was applied and 5-10 seconds later the suture was loosened. The bipolar ECG leads were tunneled subcutaneously into Lead II position and fixed with surgical sutures. Closure of the abdomen and skin was followed by 7 days recovery period. […] Drug tests were performed on 8 rats used repeatedly according to a 4-way crossover design, carried out in three sessions. In each session, all the 8 animals were treated and tested on 4 occasions with 3- or 4-days washout periods between treatments (i.e. Mondays and Thursdays in two weeks), so that on each occasion 4 pairs of rats were treated with 4 types of treatment (vehicle control, test substance A, test substance B and combination A+B), and during the 4 occasions all the animals were given all the 4 types of treatment according to a Latin-square 4-way crossover design. In the three consecutive 2-week-long sessions, three dose levels of test substances were tested in an escalating order. […] For evaluation and data reduction, pre-dose 10-min, post-dose 30-min segment averages were calculated and plotted (FIG. 5). […] None of the test substance treatments caused any apparent effect on the body temperature as compared to vehicle control data. The stress of handling and oral gavage administration caused a transient increase in both blood pressure and heart rate as indicated by changes in the vehicle treated data. However, after these transient changes, blood pressure and heart rate returned to the pre-dose level in the vehicle control group. […] For within session statistical analysis of differences from vehicle control, one-way ANOVA followed by Dunnett's test was used.

Data set [4] has as its system central nervous system (horizontal locomotor activity). The experiment in a line: Locomotor activity test. Type of data set: in vivo, rat. Particulars: 60-90 minutes post-dose. The text has this: Memantine is a neurological drug with neurological side effects at high doses, such as sedative or dissociative or psychotomimetic side effects in humans, and locomotion stimulating and motor coordination impairing effects in rodents. Therefore, as a further test to see if pharmacodynamic synergy exists also for cardinal side effects of the drug components of the combination two central nervous system side effect assessing pharmacodynamic interaction studies (locomotor activity and rotarod tests) were performed with lisinopril, memantine and their combination in rats. Male Sprague Dawley rats weighing 200-250 g at start of testing were used. Animals were acclimatized to the laboratory conditions for at least 5 days before the first experiment and kept under artificial lighting between 7:00 and 19:00 in a controlled ambient temperature of 22±2° C. One hundred animals were assigned to ten treatment groups, which were tested in parallel with appropriate randomization, time shifts and cohorts needed to exploit the capacity of test apparatus. […] Corresponding dose levels of the combination were half of the doses of the solo drug treatments. […] The test substances were dissolved in physiological saline for dosing volume of […]. The test substances were administered per os by gavage. First, the locomotor test was carried out. One week later, the same animals received the same treatment and were tested in the rotarod test. The locomotor activity test detects stimulant or sedative activity. The activity meter consisted of 16 covered Plexiglas cages (40×25×25 cm) contained within a darkened enclosure and connected to silent electronic counters. Each cage was equipped with four photocell assemblies (two at each end of the cage) 3 cm above the floor to measure the number of movements by each animal (one per cage) in the horizontal plane. The number of (horizontal) crossings by each animal (one per cage) from one pair of photocells to the other was recorded by computer in 10-minute intervals. […] The cumulated events in the period of 60-90 minutes post-dose were evaluated.

Data set [5] relates to central nervous system (rotarod performance). The experiment in a line: Accelerating rotarod test. Type of data set: in vivo, rat. To be noted: any of the three dose levels: 0.6, 2, 6 mg/kg solo; 0.3+0.3, 1+1, 3+3 mg/kg combination; per os; 45 and 90 min post-dose. Background: Falling from the rotarod earlier than controls is read as motor impairment.
Description: Animals were acclimatized to the laboratory conditions for at least 5 days before the first experiment and kept under artificial lighting between 7:00 and 19:00 in a controlled ambient temperature of 22±2° C. One hundred animals were assigned to ten treatment groups, which were tested in parallel with appropriate randomization, time shifts and cohorts needed to exploit the capacity of test apparatus. The test groups comprised nine test substance treated groups, of three treatment types (lisinopril, memantine and their 1:1 combination), each administered at three dose levels, and a vehicle control group for comparison. Corresponding dose levels of the combination were half of the doses of the solo drug treatments. Thus, the tested dose levels were 0.6, 2 and 6 mg/kg for the solo treatments and 0.3+0.3, 1+1 and 3+3 mg/kg for the combination. The test substances were dissolved in physiological saline for dosing volume of 5 mg/kg. The test substances were administered per os by gavage. […] One week later, the same animals received the same treatment and were tested in the rotarod test.
The rotarod test detects neurological deficits. Rats were placed on a rod (diameter: 7 cm) rotating at a constant speed of 4 revolutions per minute for a 2-minute period. When they fell off during this period they were replaced on the rod. […] The latency to fall off was recorded (cut-off: 3 minutes). […]
Where [6] appears, read: Lisinopril 0.3 mg/kg, read-out: Concentration of Lisinopril, Mean.
Setting [7] is: Lisinopril 1 mg/kg, read-out: Concentration of Lisinopril, Mean.
Setting [8] is: dose 0.3 mg/kg (combination containing the same dose of lisinopril).
The mark [9] stands for this setting: dose 1 mg/kg (combination containing the same dose of lisinopril).
Setting [10] is: dose 3 mg/kg (combination containing the same dose of lisinopril).
[11] abbreviates: Memantine 0.3 mg/kg, read-out: Concentration of Memantine, Mean.
Setting [12] is: Memantine 1 mg/kg, read-out: Concentration of Memantine, Mean.

Molecules are shown by their SMILES. Like-named read-outs stand apart in the source and are kept apart here.

As usually defined, the ED50 is the midpoint of the dose-response relation. For `NCCCC[C@H](N[C@@H](CCc1ccccc1)C(=O)O)C(=O)N1CCC[C@H]1C(=O)O` [Lisinopril, (S)-1-[N2-(1-carboxy-3-phenylpropyl)-L-lysyl]-L-proline], in data set [1], the ED50 was found to be 0.488 mg/kg. Further, the “ED40 (effective dose causing 40% reversal of the allodynia)” value in data set [2] (per os) was determined as 1.85 mg/kg. Further, the “reversal of allodynia at the medium dose level” value in data set [2] was “around 15%”. The concentration at 45 min turned out to be 5.75 ng/mL in data set [3] (setting [6]) and 9.86 ng/mL in data set [3] (setting [7]). The concentration at 90 min was 9.44 ng/mL in data set [3] (setting [6]) and 43 ng/mL in data set [3] (setting [7]). The concentration at 135 min in data set [3] (setting [6]) came to 14.2 ng/mL; in data set [3] (setting [7]), 57 ng/mL. Besides, the AUC(0-t) in data set [3] (dose 0.3 mg/kg, read-out: Mean AUC (AUC0-135 min) of Lisinopril, Solo (converted)) is 16.7 ng·h/mL; in data set [3] (dose 1 mg/kg, read-out: Mean AUC (AUC0-135 min) of Lisinopril, Solo (converted)), 61 ng·h/mL. The “suppression of the blood pressure” value in the data set on cardiovascular system (almost dose-independently, 0.3-3 mg/kg) was “about 7 mmHg”. Further, the figures for the “Heart rate; difference from Vehicle treated, Mean” value in the data set on cardiovascular system (setting [8]), in the data set with cardiovascular system (setting [9]) and in the data set with cardiovascular system (setting [10]) were 8.37 beats per min, 20.62 beats per min and 29.39 beats per min, respectively. Also, the figures for the “Mean arterial blood pressure; difference from Vehicle treated, Mean” value in the data set with cardiovascular system (setting [8]), with cardiovascular system (setting [9]) and in the data set on cardiovascular system (setting [10]) were −7.05 mmHg, −7.47 mmHg and −7.72 mmHg, respectively. Further, the “effect on the locomotor activity” value in data set [4] (any of the three dose levels: 0.6, 2, 6 mg/kg solo, 0.3+0.3, 1+1, 3+3 mg/kg combination, per os) was “neither lisinopril nor the combination exerted a significant effect”. For the same compound, the “effect on rotarod performance (latency to fall off)” value in data set [5] is reported as “neither lisinopril, nor memantine, nor their combination had a significant effect”.

In the case of `CC12CC3CC(C)(C1)CC(N)(C3)C2` [Memantine, 1-amino-3,5-dimethyladamantane], the ED50 in data set [1] turned out to be 0.478 mg/kg. For the same compound, the “reversing effect on the allodynia (percent reversal)” value in data set [2] (per os 0.2, 0.6 and 2 mg/kg) is not above 15%. Also, in data set [2], the “reversal of allodynia at the medium dose level” value is listed as “around 15%”. Also, the concentration at 45 min came to 5.58 ng/mL in data set [3] (setting [11]) and 11.4 ng/mL in data set [3] (setting [12]). Moreover, the results for the concentration at 90 min in data set [3] (setting [11]) and in data set [3] (setting [12]) were 8.46 ng/mL and 22.3 ng/mL, respectively. Further, the figures for the concentration at 135 min in data set [3] (setting [11]) and in data set [3] (setting [12]) were 8.91 ng/mL and 24.2 ng/mL, respectively. Besides, the AUC(0-t) in data set [3] (dose 0.3 mg/kg, read-out: Mean AUC (AUC0-135 min) of Memantine, Solo (converted)) was 13.9 ng·h/mL; in data set [3] (dose 1 mg/kg, read-out: Mean AUC (AUC0-135 min) of Memantine, Solo (converted)) it was 34.4 ng·h/mL. The “effect on hemodynamic parameters (blood pressure, heart rate)” value in the data set with cardiovascular system (0.3, 1 and 3 mg/kg, combination compared with lisinopril) is “no effect”. Besides, the “Heart rate; difference from Vehicle treated, Mean” value was −2.87 beats per min in the data set on cardiovascular system (setting [8]), −8.51 beats per min with cardiovascular system (setting [9]) and −3.03 beats per min in the data set on cardiovascular system (setting [10]). Moreover, the figures for the “Mean arterial blood pressure; difference from Vehicle treated, Mean” value in the data set with cardiovascular system (setting [8]), in the data set on cardiovascular system (setting [9]) and in the data set with cardiovascular system (setting [10]) were −1.39 mmHg, 0.11 mmHg and −0.13 mmHg, respectively. Further, the “effect on the locomotor activity” value is reported as “significant increase” in data set [4] (highest dose level (6 mg/kg per os)); “not at the two lower dose levels” in data set [4] (two lower dose levels (0.6 and 2 mg/kg per os)). In data set [5], the “effect on rotarod performance (latency to fall off)” value is on record as “neither lisinopril, nor memantine, nor their combination had a significant effect”.
